According to patent US8946119B2, “Chitooligosaccharides and methods for use in enhancing soybean growth” (Novozymes BioAg A/S, priority 2011, dated 2015):

Assays:
[1] = system: Soybean seeds (Jung seed, var. 8168NRR); test: Greenhouse soybean seed treatment, leaf surface area; assay type: in vivo; settings: seed treatment 3 fl oz/100 lbs of seed; seedlings grown 4 wks; central leaflet of 2nd trifoliate; vs control (water); FIG. 5
Description: Soybean seeds (Jung seed, var. 8168NRR) were treated with various active molecules. Seeds were treated with a liquid dose rate of 3 fl oz/100 lbs of seed. Seeds were allowed to dry for a 2 hours and planted in greenhouse in plastic pots containing 1:1 sand:perlite mixture. Seedlings were grown for 4 wks with occasional liquid fertilizer applications and then the plants were harvested. The central leaflet from the 2nd trifoliate (from down to top) was isolated and measured for surface area on a WinRhizo scanner. The rest of the plants were used for plant dry weight (DW).

[2] = system: soybean foliage; test: Soybean field trials, foliar treatment, grain yield; settings: in vivo
[3] = system: Soybean plants (Jung seed, var. 8168NRR); test: Greenhouse soybean foliar treatment, plant dry biomass; assay type: in vivo; settings: foliar application at V4 growth stage, FIG. 8
Description: Soybean plants (Jung seed, var. 8168NRR) were treated with various active molecules at V4 growth stage. Plant were grown from seeds in greenhouse in plastic pots containing 1:1 sand:perlite mixture. Seedlings were grown for 4 wks with occasional liquid fertilizer applications and then the plants were harvested.

[4] = system: Soybean seeds (Pioneer 9oM80); test: Soybean seed treatment in petriplates, radicle length; assay type: in vivo; settings: germination paper soaked with 5 ml of treatment solution; radicles measured after 48 hours; FIG. 7
Description: Soybean seeds (Pioneer 9oM80) were plated in petriplates on moist germination paper soaked with 5 ml of treatment solution containing either water or Soybean LCO, Pea CO and CO plus fatty acids. Seedling radicles were isolated after 48 hours and measured for their length.

Substance	leaf surface area [1]	Positive Yield Response (%) [2]	Response (bu/A) over Control [2]	Response Increase (% of Control) [2]	YIELD, Mean (N = 19) [2]	plant dry biomass [3]	plant dry biomass ([3]; listed as LCO)	radicle length [4]
LCO-V (C18:1) [LCO (SP104)]	significant increase in leaf surface area	68.4%	1.8 bu/A	3%	58.3 bu/A	–	–	–
LCO-V(C18:1, MeFuc) [soybean LCO]	–	–	–	–	–	no significant effect on plant dry biomass increase	relatively higher than the control plants	better seed radicle growth enhancement over control and CO
